Here are results for three compounds from ChEMBL document CHEMBL3414500, “New polycyclic dual inhibitors of the wild type and the V27A mutant M2 channel of the influenza A virus with unexpected binding mode” (Eur J Med Chem, 2015).

By pIC50 is commonly meant −log10 of the IC50, conventionally taken in molar units. A lower pIC50 goes with a high IC50.

In the assay the target is Matrix protein 2 (Influenza A virus (A/Udorn/307/1972(H3N2)), UniProt P0DOF8, V27A).

pIC50: −log10 of the molar value.

On to `N=C(N)N1C[C@@H]2[C@H](C1)[C@@H]1[C@@H]3[C@H]4CC[C@H]5[C@@H]3[C@H]2[C@H]2[C@@H]5[C@@H]4[C@@H]12`, for which the pIC50 is 4.49. Next, `C1C[C@H]2[C@H]3[C@H]4[C@@H]1[C@@H]1[C@H]2[C@@H]2[C@H]3[C@@H]3CNC[C@@H]3[C@H]4[C@H]12`: 4.76; `C1=C[C@H]2[C@H]3[C@H]4[C@@H]1[C@@H]1[C@H]2[C@@H]2[C@H]3[C@@H]3CNC[C@@H]3[C@H]4[C@H]12`: 3.73.
